Tests used:
U2OS-ERα cells = assay: KRT19 mRNA real-time PCR in U2OS-ERα cells; type: cell-based, human
Method: (FIG. 1a) Chemical structure of 2′, 3′, 4′-THC. (FIG. 1b) U2OS cells cotransfected with ERE tk-luciferase and ERα (left panel) or ERβ (right panel). After transfection the cells were treated for 24 hours with 10 nM estradiol and 5 μM 2′, 3′, 4′-THC alone or in combination. Cells were lysed and luciferase activity was measured. RLU is relative light units. Error bars are the Mean±SEM. **P≤0.01. […] The total cellular RNA was extracted and real-time PCR for KRT19 mRNA was performed as described in Materials and Methods. […] Error bars are ±SEM. *P≤0.05, **** P≤0.0001.
FIGS. 3a-3d. […] Error bars are ±SEM.

ERα = ERα (Homo sapiens, UniProt P03372); assay: NKG2E-TK-Luc transfection assay, U2OS cells cotransfected with ERα; type: cell-based; design: expressed in transfected cells; host or cells: U2OS
Method: FIG. 7a-7e. […] (C) U2OS cells cotransfected with GRE-TK-Luc and human (h) GR and treated with 10 nM of dexamethasone (Dex) and 5 μM of 2′, 3′, 4′-THC alone or in combination for 24 hours. (D) U2OS cells cotransfected with human tyrosine aminotransferase (TATS)-luciferase reporter gene and hAR and treated with 10 nM of dihydrotestosterone (DHT) and 5 μM of 2′, 3′, 4′-THC alone or in combination for 24 hours. (E) U2OS cells cotransfected with TAT3-luciferase reporter gene and hPR-B and treated with 10 nM of progesterone (Prog) and 5 μM of 2′, 3′, 4′-THC alone or in combination for 24 hours. After transfection, luciferase activities were measured as described in the Methods. RLU is relative light units and the data shown are mean±SEM.
(FIGS. 6a, 6b) Gene expression of (FIG. 6a) KRT73 and (FIG. 6b) NKG2E in U2OS-ERα cells treated with 10 nM estradiol, 5 μM 2′, 3′, 4′-THC, 1μM ICI alone or in combination for 24 hours. […] Error bars are ±SEM. […] After transfection, luciferase activities were measured as described in the Methods. RLU is relative light units and the data shown are mean ±SEM. (FIG. 6c). […] After transfection, luciferase activities were measured as described in the Methods. RLU is relative light units and the data shown are mean ±SEM (FIG. 6d).

purified ERα = purified ERα (Homo sapiens, UniProt P03372); assay: Fluorescent polarization with purified ERα; type: binding
Chain of purified ERα (P03372 whole entry): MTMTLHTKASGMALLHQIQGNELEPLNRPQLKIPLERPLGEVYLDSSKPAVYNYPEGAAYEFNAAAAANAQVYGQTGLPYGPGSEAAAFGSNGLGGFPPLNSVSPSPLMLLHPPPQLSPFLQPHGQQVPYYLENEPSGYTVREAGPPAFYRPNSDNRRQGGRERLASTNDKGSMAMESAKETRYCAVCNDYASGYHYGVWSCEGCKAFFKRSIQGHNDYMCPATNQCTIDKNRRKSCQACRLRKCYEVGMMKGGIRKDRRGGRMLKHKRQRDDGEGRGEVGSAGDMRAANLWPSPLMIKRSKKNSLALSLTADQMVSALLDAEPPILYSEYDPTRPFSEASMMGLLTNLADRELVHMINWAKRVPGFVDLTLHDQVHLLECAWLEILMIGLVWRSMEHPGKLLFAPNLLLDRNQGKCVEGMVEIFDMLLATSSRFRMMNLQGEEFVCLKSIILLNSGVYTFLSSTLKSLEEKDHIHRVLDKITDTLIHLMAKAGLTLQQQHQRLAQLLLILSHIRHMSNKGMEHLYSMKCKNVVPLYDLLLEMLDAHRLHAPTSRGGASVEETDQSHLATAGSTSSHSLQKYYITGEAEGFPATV

Chain of ERα (P03372 whole entry): as above

SMILES: O=C(/C=C/c1ccccc1)c1ccc(O)c(O)c1O [2′, 3′, 4′-THC, 2′, 3′, 4′-trihydroxychalcone]
- KRT19 gene expression, compound alone (U2OS-ERα cells; 10 nM E2, 5 μM 2′,3′,4′-THC, 1 μM tamoxifen or raloxifene, 24 hours): no effect
- activation of the KRT19 gene in the presence of E2 (U2OS-ERα cells; 1 and 5 μM 2′,3′,4′-THC, 24 h): synergistic activation
- effect on E2-induced KRT19 expression (U2OS-ERα cells; in combination with 10 nM E2, 24 hours): synergistic activation
- response of NKG2E-TK-Luc with E2 (ERα; 1 μM 2′,3′,4′-THC): synergistic response
- response of NKG2E-TK-Luc with E2 (ERα; 5 μM 2′,3′,4′-THC): maximal response
- synergistic activation of NKG2E-TK-Luc in combination with E2, tamoxifen or raloxifene (ERα; 5 μM, 10 nM E2, 1 μM tamoxifen, 1 μM raloxifene, 24 hours): synergistic activation only with E2
- activation of NKG2E-TK-Luc, compound alone (ERα; 24 hours): No activation
- IC50 relative to E2 (higher) (purified ERα): approximately 10,000 fold

— US20190008797A1, “ESTROGEN RECEPTOR ALPHA COLIGANDS, AND METHODS OF USE THEREOF” (priority 2016, published 2019)
